Source: patent publication US20260242418A1, “CYCLIC PEPTIDES WITH ANTIBACTERIAL ACTIVITY AGAINST MULTIDRUG RESISTANT (MDR) PATHOGENS” (priority 2022, published 2026)
Values after ≈ are worked out from the molar mass of the structure shown. Read-outs that look alike come from different tables or passages of the source.

Assays:
P. aeruginosa = assay type: cell-based; settings: for Folds: with vs w/o albumin
Description: (§1) To assess antimicrobial activity of PLP3 in a physiological relevant environment, MICs were performed at physiological human albumin concentrations. To this end, Mueller-Hinton broth (MHB) was supplemented with 40 mg/mL human albumin (A1653-5G, Merck) and broth microdilution protocol was used. SEQ ID NO: 4 (PLP-3) and colistin stocks were prepared both in MHB and albumin supplemented MHB. These were used for comparison of MICs in the presence or absence of albumin, and as a control.

A. baumannii = assay type: cell-based; settings: for Folds: with vs w/o albumin
Description: as §1

Pseudomonas aeruginosa = assay type: cell-based
Excerpt: (§2) Minimum Inhibitory Concentration (MIC) of a peptide of SEQ D NO: 4 (abbreviated PLP-3) and colistin against a collection of clinically relevant and commercially available bacterial strains was obtained via broth microdilution. The protocol for antimicrobial activity determination, detailed below, consisted in a modification of Clinical & Laboratory Standards Institute (CLSI) Guidelines.
(§3) MIC is the value defined as the lowest concentration of an antimicrobial, in these tests either PLP-3 or colistin, which inhibits the macroscopic growth of a bacterial strain after 18-22 h incubation at 37° C. The results from these assays are obtained via visual identification of the bacterial bottom at the end of the wells of the testing plate. Since the wells contain decreasing concentrations of the compounds, the final result is indicated as a concentration, MIC, expressed in μg/mL of the agent (in this case PLP-3 or colistin).
(§4) Bacterial strains were streaked in Columbia Agar plates (Columbia Agar with 5% Sheep Blood 90 mm Stacker plates, BD) and incubated overnight at 37° C. Polypropylene round bottomed 96-well plates were filled with 50 μL/well of Mueller-Hinton Broth (MHB, CM0405, 500 g, ThermoFisher Scientific™ Oxoid™) and 50 μL of either colistin or PLP-3 (at 4× the chosen initial concentration of the test) were added to the first well of each row of the plate followed by serial dilutions up until the 10th column of the plate.
(§5) Finally, strain inoculums were prepared by diluting 1:100 0.5 McFarland solutions in MHB. Plates were then inoculated with 50 μL of the inoculums and covered with film before 18 to 22 h incubation at 37 C.
(§6) Three biological and three technical replicates were performed per strain.
(§7) Broth microdilution testing of 15 strains of each species provided MIC50 and […] values (Table 4). Strains were either from clinical origin, relevant to current clinical situation, or commercially available strains belonging to the American Type Culture Collection (ATCC), namely: A. baumannii 17978 and 19606, K. pneumoniae 13883 and P. aeruginosa 27853.
(§8) This panel represents an example of relevant MDR, colistin resistant and colistin susceptible strains from which to compare results. The minimum inhibitory concentration (MIC) is the lowest concentration of a chemical, usually a drug, which prevents visible growth of a bacterium or bacteria. MIC50 represents the antimicrobial concentration value that inhibits the growth of 50% of the bacterial strains and […] of each species from the tested panel of strains. Being colistin both a peptide and a last-resource antibiotic, it was included in these assays for comparison against a commercially available antibiotic.
P. aeruginosa ATCC 27853 strain (commercially available from the American Type Collection Culture) was used as control by performing MICs to colistin and PLP-3 in all broth microdilution assays

Klebsiella pneumoniae = assay type: cell-based
Excerpt: as §2, §3, §4, §5, §6, §7, §8

Acinetobacter baumannii = assay type: cell-based
Excerpt: as §2, §3, §4, §5, §6, §7, §8

A. baumannii ATCC 19606 = experiment: Time-kill curves; assay type: cell-based, Acinetobacter baumannii
Description: Time-kill curves (TKC) determine the in vitro antimicrobial activity of a compound, monitoring the bacterial growth over a certain period of time.
This assay was performed for two Acinetobacter baumannii strains (a clinical strain and ATCC 19606 strain) and one Pseudomonas aeruginosa ATCC 27853 strain, monitoring its growth during 24 hours at different PLP-3 (SEQ ID NO: 4) concentrations: MIC, 2×MIC, 4×MIC, 8×MIC. Moreover, in each TKC assay a negative and a positive growth control was stablished.
In different 13MI tubes, a certain concentration of PLP-3 peptide, Mueller-Hinton Broth (MHB, 1214, Condalab) and a fixed inoculum concentration were added. The final inoculum concentration in each tube was […]. Tubes were incubated at 37° C. at 180 rpm during 24 hours. Aliquots of the liquid culture were taken at different times: 0 h, 10 minutes, 30 minutes, 1 h, 2 h, 4 h, 8 h and 24 h. For each taken aliquot, serial dilutions with Phosphate Saline Buffer 1× (PBS 1×) were made and streaked in Luria-Bertani Agar (LB, 1083, Condalab). LB Agar plates were incubated at 37° C. during 18-22 hours. Grown colonies in LB Agar were counted in order to quantify the inoculum in each time period.
Three biological replicates were performed for each strain, and the mean and standard deviation was determined each time.

[1] = panel of 15 P. aeruginosa strains
[2] = panel of 15 K. pneumoniae strains
[3] = panel of 15 A. baumannii strains

Q: What does the source list for `CC(C)C[C@@H]1NC(=O)[C@H](CCCNC(=N)N)NC(=O)[C@H](CCCNC(=N)N)NC(=O)[C@H](CCCNC(=N)N)NC(=O)[C@H]2CCCN2C(=O)[C@H](CCCNC(=N)N)NC(=O)[C@H](CCCNC(=N)N)NC(=O)[C@H](C(C)C)NC(=O)[C@@H]2CSSC[C@H](NC1=O)C(=O)N[C@@H](Cc1ccccc1)C(=O)N[C@@H](C(C)C)C(=O)N[C@@H](CCCNC(=N)N)C(=O)N1CCC[C@@H]1C(=O)N[C@@H](CCCCN)C(=O)N[C@@H](Cc1ccccc1)C(=O)N[C@@H](C(C)C)C(=O)N[C@@H](C(C)C)C(=O)N2` [PLP-3, cyclo[RRRLCFVRPKFVVCVRRP]]?
A: MIC With Albumin 40 mg/mL (P. aeruginosa; strain ATCC 27853): 8 µg/mL; MIC w/o Albumin (P. aeruginosa; strain ATCC 27853): 2 µg/mL (≈ 0.882 µM); Folds (P. aeruginosa; strain ATCC 27853): 2; MIC With Albumin 40 mg/mL (P. aeruginosa; strain R2): 32 µg/mL; MIC w/o Albumin (P. aeruginosa; strain R2): 4 µg/mL (≈ 1.76 µM); Folds (P. aeruginosa; strain R2): 3; MIC With Albumin 40 mg/mL (A. baumannii; strain ATCC 17978): 4 µg/mL; MIC w/o Albumin (A. baumannii; strain ATCC 17978): 1 µg/mL (≈ 0.441 µM); Folds (A. baumannii; strain ATCC 17978): 2; MIC With Albumin 40 mg/mL (A. baumannii; strain CR17): 2 µg/mL; MIC w/o Albumin (A. baumannii; strain CR17): 1 µg/mL (≈ 0.441 µM); Folds (A. baumannii; strain CR17): 1; MIC range (Pseudomonas aeruginosa): 1 to 8 µg/mL; MIC50 (Pseudomonas aeruginosa; [1]): 4 µg/mL (≈ 1.76 µM); MIC90 (Pseudomonas aeruginosa; [1]): 8 µg/mL (≈ 3.53 µM); MIC range (Klebsiella pneumoniae): 2 to 32 µg/mL; MIC50 (Klebsiella pneumoniae; [2]): 4 µg/mL (≈ 1.76 µM); MIC90 (Klebsiella pneumoniae; [2]): 16 µg/mL (≈ 7.06 µM); Range of MICs (Acinetobacter baumannii): 1 to 2 µg/mL; MIC50 (Acinetobacter baumannii; [3]): 1 µg/mL (≈ 0.441 µM); MIC90 (Acinetobacter baumannii; [3]): 2 µg/mL (≈ 0.882 µM); log(CFU/mL) Mean (A. baumannii ATCC 19606; 2xMIC (4 μg/mL), 0.00 h): 5.87 log(CFU/mL); log(CFU/mL) Mean (A. baumannii ATCC 19606; 2xMIC (4 μg/mL), 0.17 h): 5.54 log(CFU/mL); log(CFU/mL) Mean (A. baumannii ATCC 19606; 2xMIC (4 μg/mL), 0.50 h): 4.91 log(CFU/mL); log(CFU/mL) Mean (A. baumannii ATCC 19606; 2xMIC (4 μg/mL), 1.00 h): 3.14 log(CFU/mL); log(CFU/mL) Mean (A. baumannii ATCC 19606; 2xMIC (4 μg/mL), 2.00 h): 2.18 log(CFU/mL); log(CFU/mL) Mean (A. baumannii ATCC 19606; 2xMIC (4 μg/mL), 4.00 h): 2.58 log(CFU/mL); log(CFU/mL) Mean (A. baumannii ATCC 19606; 2xMIC (4 μg/mL), 8.00 h): 2.56 log(CFU/mL); log(CFU/mL) Mean (A. baumannii ATCC 19606; 2xMIC (4 μg/mL), 24.00 h): 3.30 log(CFU/mL); log(CFU/mL) Mean (A. baumannii ATCC 19606; 4xMIC (8 μg/mL), 0.00 h): 5.87 log(CFU/mL); log(CFU/mL) Mean (A. baumannii ATCC 19606; 4xMIC (8 μg/mL), 0.17 h): 5.12 log(CFU/mL); log(CFU/mL) Mean (A. baumannii ATCC 19606; 4xMIC (8 μg/mL), 0.50 h): 3.79 log(CFU/mL); log(CFU/mL) Mean (A. baumannii ATCC 19606; 4xMIC (8 μg/mL), 1.00 h): 0.94 log(CFU/mL); log(CFU/mL) Mean (A. baumannii ATCC 19606; 4xMIC (8 μg/mL), 2.00 h): 0.00 log(CFU/mL); log(CFU/mL) Mean (A. baumannii ATCC 19606; 4xMIC (8 μg/mL), 4.00 h): 0.00 log(CFU/mL); log(CFU/mL) Mean (A. baumannii ATCC 19606; 4xMIC (8 μg/mL), 8.00 h): 0.00 log(CFU/mL); log(CFU/mL) Mean (A. baumannii ATCC 19606; 4xMIC (8 μg/mL), 24.00 h): 0.00 log(CFU/mL); log(CFU/mL) Mean (A. baumannii ATCC 19606; 8xMIC (16 μg/mL), 0.00 h): 5.87 log(CFU/mL); log(CFU/mL) Mean (A. baumannii ATCC 19606; 8xMIC (16 μg/mL), 0.17 h): 3.41 log(CFU/mL); log(CFU/mL) Mean (A. baumannii ATCC 19606; 8xMIC (16 μg/mL), 0.50 h): 0.87 log(CFU/mL); log(CFU/mL) Mean (A. baumannii ATCC 19606; 8xMIC (16 μg/mL), 1.00 h): 0.00 log(CFU/mL); log(CFU/mL) Mean (A. baumannii ATCC 19606; 8xMIC (16 μg/mL), 2.00 h): 0.00 log(CFU/mL); log(CFU/mL) Mean (A. baumannii ATCC 19606; 8xMIC (16 μg/mL), 4.00 h): 0.00 log(CFU/mL); log(CFU/mL) Mean (A. baumannii ATCC 19606; 8xMIC (16 μg/mL), 8.00 h): 0.00 log(CFU/mL); log(CFU/mL) Mean (A. baumannii ATCC 19606; 8xMIC (16 μg/mL), 24.00 h): 0.00 log(CFU/mL); log(CFU/mL) Mean (A. baumannii ATCC 19606; MIC (2 μg/mL), 0.00 h): 5.87 log(CFU/mL); log(CFU/mL) Mean (A. baumannii ATCC 19606; MIC (2 μg/mL), 0.17 h): 5.85 log(CFU/mL); log(CFU/mL) Mean (A. baumannii ATCC 19606; MIC (2 μg/mL), 0.50 h): 5.43 log(CFU/mL); log(CFU/mL) Mean (A. baumannii ATCC 19606; MIC (2 μg/mL), 1.00 h): 4.01 log(CFU/mL); log(CFU/mL) Mean (A. baumannii ATCC 19606; MIC (2 μg/mL), 2.00 h): 2.39 log(CFU/mL); log(CFU/mL) Mean (A. baumannii ATCC 19606; MIC (2 μg/mL), 4.00 h): 3.05 log(CFU/mL); log(CFU/mL) Mean (A. baumannii ATCC 19606; MIC (2 μg/mL), 8.00 h): 3.85 log(CFU/mL); log(CFU/mL) Mean (A. baumannii ATCC 19606; MIC (2 μg/mL), 24.00 h): 5.17 log(CFU/mL); bactericidal or bacteriostatic activity (A. baumannii ATCC 19606; time-kill curves over 24 hours, MIC to 8xMIC): bactericidal effect
